Earlier results in US8168657B2, “Solenopsin A, B and analogs and as novel angiogenesis inhibitors” (priority 2002, dated 2012).

How the values were obtained:
[1] = system: blood and tissue- and fluid-feeding parasites
[2] = as much as 6000 units used over a shorter time period

SMILES: CCCCCCCCCCC[C@H]1CCC[C@H](C)N1 (relative stereo) [Solenopsin A, trans-2-methyl 6-n-undecylpiperidine]
- units equivalent to 250 units of the whole body extracts ([1]; synthetic version versus whole body extract, effective treatment): 1500 units
- elimination of blood and tissue- and fluid-feeding parasites ([1]; synthetically produced Solenopsin A): complete elimination
- ill effects [2]: did not cause any ill effects
